Read-outs that look alike come from different tables or passages of the source.
Target: T1, CARM1 (PRMT4) (Homo sapiens, UniProt Q86X55)
T1 construct: Flag-CARM1-His was eluted with 200 ug/ml FLAG peptide in buffer A; made in house; host or cells: HEK 293F cells (BacMam baculovirus)
T1 sequence (Q86X55 2-585 isoform Q86X55-1): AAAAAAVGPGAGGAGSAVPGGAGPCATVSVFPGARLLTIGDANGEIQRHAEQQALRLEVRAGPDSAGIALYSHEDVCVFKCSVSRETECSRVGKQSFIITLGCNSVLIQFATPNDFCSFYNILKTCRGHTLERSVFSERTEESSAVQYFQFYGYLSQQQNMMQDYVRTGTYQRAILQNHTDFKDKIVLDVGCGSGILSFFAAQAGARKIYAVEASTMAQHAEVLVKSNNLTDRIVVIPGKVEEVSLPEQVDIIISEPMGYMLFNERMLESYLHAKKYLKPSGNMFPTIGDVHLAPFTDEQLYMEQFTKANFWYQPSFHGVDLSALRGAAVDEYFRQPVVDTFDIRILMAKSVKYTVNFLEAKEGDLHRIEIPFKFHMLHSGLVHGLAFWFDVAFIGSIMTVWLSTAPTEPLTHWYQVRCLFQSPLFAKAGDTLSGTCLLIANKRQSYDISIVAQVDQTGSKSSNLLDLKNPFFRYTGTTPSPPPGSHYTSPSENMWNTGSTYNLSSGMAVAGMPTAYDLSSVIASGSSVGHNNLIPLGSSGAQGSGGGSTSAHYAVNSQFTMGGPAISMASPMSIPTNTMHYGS
Assay: CARM1 Biochemical Assay
Description: Peptide representative of human histone H3 residues 16-30 was synthesized with an N-terminal linker-affinity tag motif and a C-terminal amide cap by 21st Century Biochemicals. The peptide was purified by high-performance liquid chromatography (HPLC) to greater than 95% purity and confirmed by liquid chromatography mass spectrometry (LC-MS). The sequence was Biot-Ahx-[…]-amide and contained a monomethylated arginine at position 26 (SEQ ID NO.: 14).
Human CARM1 (PRMT4) (NM_199141.1) transcript clone was amplified from an HEK 293 cDNA library, incorporating a flanking 5′ sequence encoding a FLAG tag ([…]) (SEQ ID NO.:6) fused directly to Ala 2 of CARM1 and 3′ sequence encoding a hexa His sequence ([…]) (SEQ ID NO.: 15) fused directly to Ser 608. The gene sequence encoding isoform1 containing a deletion of amino acids 539-561 was amplified subsequently and subcloned into pFastBacMam (Viva Biotech).
Column was washed with 500 mM NaCl in buffer A and Flag-CARM1-His was eluted with 200 ug/ml FLAG peptide in buffer A. Pooled fractions were dialyzed in 20 mM Tris, 150 mM NaCl, 5% glycerol and 1 mM DTT, pH 7.8. The purity of recovered protein was 94.
General Procedure for CARM1 Enzyme Assays on Peptide Substrates.
The assays were all performed in a buffer consisting of 20 mM Bicine (pH=7.6), 1 mM TCEP, 0.005% BSG, and 0.002% Tween 20, prepared on the day of use. Compounds in 100% DMSO (1 ul) were spotted into a polypropylene 384-well V-bottom plates (Greiner) using a Platemate Plus outfitted with a 384-channel head (Thermo Scientific). DMSO (1 ul) was added to Columns 11, 12, 23, 24, rows A-H for the maximum signal control and 1 ul of SAH, a known product and inhibitor of CARM1, was added to columns 11, 12, 23, 24, rows I-P for the minimum signal control. A cocktail (40 ul) containing the CARM1 enzyme was added by Multidrop Combi (Thermo-Fisher). The compounds were allowed to incubate with CARM1 for 30 min at room temperature, then a cocktail (10 ul) containing ^3H-SAM and peptide was added to initiate the reaction (final volume=51 ul). The final concentrations of the components were as follows: CARM1 was 0.25 nM, ^3H-SAM was 30 nM, peptide was 250 nM, SAH in the minimum signal control wells was 1 mM, and the DMSO concentration was 2%. The assays were stopped by the addition of non-radiolabeled SAM (10 ul) to a final concentration of 300 uM, which dilutes the ^3H-SAM to a level where its incorporation into the peptide substrate is no longer detectable. […] The plates were then read in a PerkinElmer TopCount plate reader to measure the quantity of ^3H-labeled peptide bound to the Flashplate surface, measured as disintegrations per minute (dpm) or alternatively, referred to as counts per minute (cpm). […]

[1] = Table 2, biochemical evaluation, read-out: PRMT4 IC50 (class)
[2] = Table 2a, numerical, single experiment or average of multiple experiments, read-out: PRMT4 IC50

Molecule `CN(CCN)Cc1ncoc1-c1ccc(C#N)cc1` [Compound 1, 4-(4-(((2-aminoethyl)(methyl)amino)methyl)oxazol-5-yl)benzonitrile] has an IC50 [1] greater than 10 µM and an IC50 [2] greater than 10 µM.

Work on `CN(CCN)Cc1ccnn1-c1ccc(C#N)cc1` [Compound 2, 4-(5-(((2-aminoethyl)(methyl)amino)methyl)-1H-pyrazol-1-yl)benzonitrile] yielded an IC50 [1] greater than 10 µM and an IC50 [2] greater than 10 µM.
